Several values for one entry are separate records, joined by “and”; a condition that tells them apart may be missing. Equal values may be shown once.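 How tested: cells in 96-well plates exposed to compound for 48 hours at five concentrations. Abbreviation: GI50, concentration required for 50% inhibition of growth. TGI denotes the concentration required for complete inhibition of growth.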
Legend:
Experiment in all cases: DTP human tumour cell line panel, 48 h
[1] = system: ACHN renal
[2] = system: SK-MEL-5 melanoma
[3] = system: OVCAR-8 ovarian
[4] = system: SF-268 CNS
[5] = system: K-562 leukemia
[6] = system: HL-60(TB) leukemia
[7] = system: OVCAR-5 ovarian
[8] = system: SN12C renal
[9] = system: MDA-MB-231 breast
[10] = system: A549 NSCLC

COc1ccc(N2C(=O)C(=O)N(C)C2=O)c2ccccc12
TGI [1]: > 10 µM
TGI [2]: > 10 µM
TGI [3]: > 10 µM
TGI [4]: > 10 µM
TGI [5]: > 10 µM
TGI [6]: > 10 µM
TGI [7]: > 10 µM
TGI [8]: > 10 µM
TGI [9]: > 10 µM
TGI [10]: > 10 µM

CN(CC(=O)O)CC(=O)O
TGI [1]: > 100 µM
TGI [2]: > 100 µM
TGI [3]: > 100 µM
TGI [4]: > 100 µM
TGI [5]: > 100 µM
TGI [6]: > 100 µM
TGI [7]: > 100 µM
TGI [8]: > 100 µM
TGI [9]: > 100 µM
TGI [10]: > 100 µM

CC[C@@]1(O)C(=O)OCc2c1cc1n(c2=O)Cc2cc3c(CN(C)C)c(O)ccc3nc2-1
GI50 [1]: < 0.01 µM and 0.00474 µM and 0.0188 µM
GI50 [2]: 0.0197 µM and 0.0191 µM and 0.0448 µM
GI50 [4]: < 0.01 µM and 0.00517 µM and 0.0175 µM
GI50 [6]: 0.0103 µM and 0.00542 µM
GI50 [7]: 0.168 µM and 0.217 µM and 0.407 µM
GI50 [8]: < 0.01 µM and 0.00456 µM and 0.0248 µM
GI50 [9]: 0.847 µM and 0.393 µM and 3.22 µM
GI50 [10]: 0.0545 µM and 0.08 µM

O=S(=O)(Nc1nccs1)c1ccc([As](=O)(O)O)cc1
TGI [1]: > 100 µM
TGI [2]: > 100 µM
TGI [3]: > 100 µM
TGI [4]: > 100 µM
TGI [5]: > 100 µM
TGI [6]: > 100 µM
TGI [7]: > 100 µM
TGI [8]: > 100 µM
TGI [9]: > 100 µM
TGI [10]: > 100 µM

Clc1ccc(C2CC(c3cccc(Nc4ccncc4)c3)=NN2c2ccccc2)cc1 (centres undefined)
GI50 [1]: 1.66 µM
TGI [1]: 3.02 µM
GI50 [2]: 1.82 µM
TGI [2]: 3.26 µM
GI50 [4]: 1.87 µM
TGI [4]: 3.84 µM
GI50 [5]: 1.67 µM
TGI [5]: 5.45 µM
GI50 [6]: 1.71 µM
TGI [6]: 3.87 µM
GI50 [7]: 1.66 µM
TGI [7]: 3.07 µM
GI50 [8]: 1.78 µM
TGI [8]: 3.31 µM
GI50 [9]: 1.7 µM
TGI [9]: 3.21 µM

COC1=CC(=O)c2c(c(COC(C)=O)cn2C)C1=O
TGI [1]: 0.173 µM
TGI [2]: 0.39 µM
TGI [3]: 0.313 µM
TGI [4]: 0.808 µM
TGI [5]: 0.707 µM
TGI [6]: 0.694 µM
TGI [7]: 0.0689 µM
TGI [8]: 0.325 µM
TGI [9]: 1.08 µM
TGI [10]: 0.509 µM

CC(C(=O)NCCNC(=O)CCCC(=O)N(C)O)C(=O)NCCNC(=O)CCCC(=O)N(C)O
TGI [1]: > 100 µM
TGI [2]: > 100 µM
TGI [3]: > 100 µM
TGI [4]: > 100 µM
TGI [5]: > 100 µM
TGI [6]: > 100 µM
TGI [7]: > 100 µM
TGI [9]: > 100 µM
TGI [10]: > 100 µM

CC(C)=CC1C(COC(=O)c2ccccc2Cl)C1(C)C (centres undefined)
TGI [1]: > 100 µM
TGI [2]: 65.3 µM
TGI [3]: > 100 µM
TGI [4]: > 100 µM
TGI [5]: > 100 µM
TGI [6]: 67.7 µM
TGI [7]: > 100 µM
TGI [8]: > 100 µM
TGI [9]: > 100 µM
TGI [10]: > 100 µM

CC1(CO)C(O)CCC2(C)C1C(O)CC1CC3CC12CCC3(O)CO (centres undefined)
TGI [2]: > 225 µM
TGI [3]: > 225 µM
TGI [4]: > 225 µM
TGI [5]: > 225 µM
TGI [6]: > 225 µM
TGI [7]: > 225 µM
TGI [8]: > 225 µM
TGI [10]: > 225 µM

CCN(CC)CCCC(C)Nc1c2ccc(Cl)cc2nc2cc(Cl)ccc12 (centres undefined)
TGI [2]: 10 µM
TGI [3]: 19.3 µM
TGI [4]: 16.3 µM
TGI [5]: 5.05 µM
TGI [6]: 4.6 µM
TGI [7]: 21.2 µM
TGI [8]: 17.3 µM
TGI [10]: 18.1 µM

O=[N+]([O-])c1ccc(Cc2nc3cc4ccccc4cc3[nH]2)cc1C(F)(F)F
TGI [1]: 29.3 µM
TGI [2]: 25.1 µM
TGI [3]: 48.5 µM
TGI [4]: 39 µM
TGI [5]: 30.3 µM
TGI [6]: > 100 µM
TGI [7]: 27.5 µM
TGI [8]: 38 µM
TGI [10]: 64.8 µM

CC(=O)Nc1c2sscc-2n(C)c1=O
TGI [1]: 12.1 µM
TGI [2]: 3.38 µM
TGI [3]: 1.36 µM
TGI [4]: 3.09 µM
TGI [5]: 5.71 µM
TGI [6]: 5.9 µM
TGI [7]: 3 µM
TGI [8]: 3.37 µM
TGI [9]: 3.54 µM
TGI [10]: 3.56 µM

CNCCCn1c2c(c3ccc(Cl)cc3c1=O)C(=O)c1cc(OC)cnc1-2
GI50 [1]: 0.224 µM
TGI [1]: 1.58 µM
GI50 [2]: 1.12 µM
TGI [2]: 2.49 µM
GI50 [3]: 1.18 µM
TGI [3]: 3.5 µM
GI50 [4]: 0.397 µM
TGI [4]: 2.19 µM
GI50 [6]: 0.601 µM
TGI [6]: 2.4 µM
GI50 [7]: 1.69 µM
TGI [7]: 3.18 µM
GI50 [8]: 1.18 µM
TGI [8]: 3.04 µM
GI50 [9]: 1.62 µM
TGI [9]: 3.54 µM

CSC1=C(SC)C(=O)c2cn(C)c(=O)cc2C1=O
TGI [1]: 3.32 µM
TGI [2]: 3.15 µM
TGI [3]: > 70.9 µM
TGI [4]: 17 µM
TGI [5]: 0.424 µM
TGI [7]: 35.2 µM
TGI [8]: 12.3 µM
TGI [9]: 3.7 µM
TGI [10]: 36.9 µM

CC(C)C(=O)Nc1ccc(-c2nc(-c3cccc(OCCN4CCOCC4)c3)c(-c3ccnc(Br)c3)[nH]2)cc1
GI50 [1]: 3.87 µM
TGI [1]: 94.1 µM
GI50 [2]: 1.79 µM
TGI [2]: 3.25 µM
GI50 [3]: 4.16 µM
TGI [3]: > 100 µM
GI50 [4]: 4.26 µM
TGI [4]: > 100 µM
GI50 [7]: 6.42 µM
TGI [7]: > 100 µM
GI50 [8]: 4.46 µM
TGI [8]: > 100 µM
GI50 [9]: 3.66 µM
TGI [9]: > 100 µM
GI50 [10]: 3.73 µM
TGI [10]: > 100 µM

Reference: PubChem BioAssay (NCI)
